The values that follow come from US20240239788A1, “SMALL MOLECULE INHIBITORS OF KRAS G12D MUTANT” (Merck Sharp & Dohme LLC, priority 2021, published 2024).

Usually IC50 stands for the concentration that inhibits the measured activity by half.

Test [1] concerns AsPC-1 cells containing homozygous KRAS-G12D activating mutation. Put plainly: Cellular phospho-ERK assay (Examples 1a-106). In kind it is cell-based. The conditions noted are these: AsPC-1 cells, 2 hours, ratio of p-Erk vs total Erk, read-out: IC50 (nM) pERK (Cell). The text has this:
5% CO? overnight. […] Assay plates were read on a EnVision Multimode Plate Reader (PerkinElmer) and the ratio of p-Erk vs total Erk in each well was used as the final readout.

For test [2], the target named is KRAS protein containing G12D mutation (Homo sapiens (Human), UniProt P01116, G12D). Put plainly: SOS-catalyzed nucleotide exchange assay (GNE), TR-FRET. It is filed as biochemical. Conditions: biotinylated KRAS G12D, SOS and GTP, 60-minute incubation. As to the method: Compounds are added to this complex and then after a 60-minute incubation time the mixture is treated with SOS and unlabeled GTP. Small molecule inhibitors stabilize the Bodipy-GDP complex whereas the untreated protein rapidly exchanges Bodipy-GDP for unlabeled GTP resulting in reduced TR-FRET signal.
This solution is referred to as biotinylated KRAS G12D stock solution.
In general terms: TR-FRET usually uses a lanthanide donor and a delayed reading to cut background.

Test [3] concerns the target KRAS G12D / Ras binding domain of C-RAF (Homo sapiens (Human), UniProt P01116, G12D). Put plainly: RAS:RAF-RBD binding assay (cRaf), TR-FRET. Conditions: biotinylated KRAS G12D, GST-C-RAF RBD.
Protocol: Compounds are added to KRAS and then after a 30-minute incubation time the RAF-RBD and detection antibodies are added. Small molecule inhibitors that block the interaction of c-RAF-RBD prevent generation of a TR-FRET signal.
Biotinylated KRAS G12D protein is diluted to 20 nM in assay buffer (20 mM HEPES pH 7.5, 150 mM sodium chloride, 10 mM magnesium chloride, and 0.01% Tween20).
Each test compound (10 mM stock in DMSO) is diluted in DMSO to make a 10-point, 3-fold dilution series in a 384-well low dead volume microplate (Labcyte, catalog #LP-0200).
Each well of the assay plate receives 5 μL of Biotinylated KRAS G12D assay solution and is incubated at room temperature for 30 minutes. Each well then receives 5 μL of 100 nM GST-C-RAF RBD protein and a 1:100 dilution of both anti-GST-d2 (Cisbio catalog #61GSTDLA) and Streptavidin-Tb cryptate (Cisbio catalog #610SATLA) in assay buffer and the plate is mixed and briefly centrifuged followed by a 60 minute incubation at room temperature.
The apparent effect as a function of compound concentration is fit to a four-parameter logistic equation.

Where two headings read alike, the source gives them in different places.

Chain of KRAS protein containing G12D mutation (P01116 other isoform, or with tags, fused parts or gaps G12D (already in the parent)): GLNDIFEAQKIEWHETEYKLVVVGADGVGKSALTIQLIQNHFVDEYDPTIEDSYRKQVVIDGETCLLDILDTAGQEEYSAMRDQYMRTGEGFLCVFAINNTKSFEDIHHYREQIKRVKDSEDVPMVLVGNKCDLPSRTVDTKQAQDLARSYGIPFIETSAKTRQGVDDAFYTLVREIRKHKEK
Chain of KRAS G12D / Ras binding domain of C-RAF (P01116 other isoform, or with tags, fused parts or gaps G12D (already in the parent)): as above

For `CN(C)CC1(COc2nc(N3C[C@@H]4CC[C@](C)(C3)N4)c3cc(F)c(-c4cc(O)cc5ccccc45)c(F)c3n2)CC1` [Example 20, 4-(2-((1-((dimethylamino)methyl)cyclopropyl)methoxy)-6,8-difluoro-4-((1R,5S)-1-methyl-3,8-diazabicyclo[3.2.1]octan-3-yl)quinazolin-7-yl)naphthalen-2-ol], the IC50 in test [1] (Homo sapiens, ASPC1, 2 h) came out at 3500 nM; in test [2] it was 117 nM; in test [3] (IC50 (nM) (cRaf)), 14400 nM.
Turning to `Cc1cc2[nH]ncc2c(-c2c(F)cc3c(N4C[C@H]5CC[C@@](C)(C4)N5)nc(OC[C@@H]4C[C@@H](F)CN4C)nc3c2F)c1C(F)(F)F` [Example 67, 6,8-difluoro-2-(((2S,4R)-4-fluoro-1-methylpyrrolidin-2-yl)methoxy)-7-(6-methyl-5-(trifluoromethyl)-H-indazol-4-yl)-4-((1S,5R)-1-methyl-3,8-diazabicyclo[3.2.1]octan-3-yl)quinazoline], the IC50 in test [1] (Homo sapiens, ASPC1, 2 h) worked out at 2860 nM; in test [2] it was 173 nM; in test [3] (IC50 (nM) (cRaf)) it was 4040 nM.
For `COC1CC2CN(c3nc(OCC4(CN(C)C)CC4)nc4c(F)c(-c5cc(O)cc6ccccc56)c(Cl)cc34)CC1N2` [Example 26, 4-(6-chloro-2-((1-((dimethylamino)meth-yl)cyclo-propyl)methoxy)-8-fluoro-4-(R,R,6-methoxy-3,8-diazabi-cyclo[3.2.1]octan-3-yl)quinazolin-7-yl)naphthalen-2-ol], the half-inhibitory concentration (IC50) in test [1] (Homo sapiens, ASPC1, 2 h) amounted to 10400 nM; in test [2] it was 358 nM; in test [3] (IC50 (nM) (cRaf)) it was 11800 nM.
With `CN(C)CC1(COc2nc(N3CC4CC[C@@](C)(C3)N4)c3cc(Cl)c(-c4cc(O)cc5ccccc45)c(F)c3n2)CC1` [Example 35, 4-(6-chloro-2-((1-((dimethylamino)meth-yl)cyclopro-pyl)methoxy)-8-fluoro-4-((1S,5R)-1-methyl-3,8-diaza-bicyclo[3.2.1]octan-3-yl)quinazolin-7-yl)naphthalen-2-ol], the IC50 is 2260 nM in test [1] (Homo sapiens, ASPC1, 2 h); 27.3 nM in test [2]; 1890 nM in test [3] (IC50 (nM) (cRaf)).
On to `CN(C)CC1(COc2nc(N3C[C@H]4C[C@@H](O)[C@@H](C3)N4)c3cc(Cl)c(-c4cc(O)cc5ccccc45)c(F)c3n2)CC1` (single isomer, unassigned) [Example 18a], for which the IC50 in test [1] was determined as 20600 nM; in test [2], 8.97 nM; in test [3] (IC50 (nM) (cRaf)) it was 293 nM.
As for `Nc1ccc2c(F)ccc(-c3c(Cl)cc4c(N5CC6CCC(C5)N6)nc(OCC5(CN6CCOCC6)CC5)nc4c3F)c2n1` [Example 52, 8-(4-(3,8-diazabicyclo[3.2.1]octan-3-yl)-6-chloro-8-fluoro-2-((1-(morpholinomethyl)cyclopropyl)methoxy)quinazolin-7-yl)-5-fluoroquinolin-2-amine], the IC50 in test [1] (Homo sapiens, ASPC1, 2 h) stood at 2560 nM; in test [2], 132 nM; in test [3] (IC50 (nM) (cRaf)), 3820 nM.
As for `C[C@]12CC[C@H](CN(c3nc(OCC4(CN5CC[C@@H](F)C5)CC4)nc4c(F)c(-c5cc(O)cc6ccccc56)c(F)cc34)C1)N2` [Ex 81, 4-(6,8-difluoro-2-((1-(((R)-3-fluoropyrrolidin-1-yl)methyl)cyclopropyl)methoxy)-4-((1S,5R)-1-methyl-3,8-diazabicyclo[3.2.1]octan-3-yl)quinazolin-7-yl)naphthalen-2-ol], the IC50 in test [1] (Homo sapiens, ASPC1, 2 h) stood at 467 nM; in test [2] it was 16.5 nM; in test [3] (IC50 (nM) (cRaf)) it was 1980 nM.
In the case of `CN(C)CC1(COc2nc(N3C[C@H]4NC(C)(C[C@H]4O)C3)c3cc(Cl)c(-c4cc(O)cc5ccccc45)c(F)c3n2)CC1` (stereo in doubt) [Example 42, 3-(6-chloro-2-((1-((dimethylamino)methyl)cyclopropyl)methoxy)-8-fluoro-7-(3-hydroxynaphthalen-1-yl)quinazolin-4-yl)-1-methyl-3,8-diazabicyclo [3.2.1]octan-6-ol], the IC50 in test [1] (Homo sapiens, ASPC1, 2 h) was 8460 nM; in test [2], 17.5 nM; in test [3] (IC50 (nM) (cRaf)), 20400 nM.
For the compound `C[C@@]12CC(O)[C@@](C)(CN(c3nc(OC[C@@]45CCCN4C[C@H](F)C5)nc4c(F)c(-c5cc(O)cc6cccc(Cl)c56)c(F)cc34)C1)N2` (stereo partly drawn) [Example 106], the IC50 in test [1] came to 76.1 nM; in test [2], 2.09 nM; in test [3] (read-out: IC50 (nM) (cRaf)), 49.4 nM.
Consider `Cc1c(Cl)cc2[nH]nc(C)c2c1-c1c(F)cc2c(N3C[C@H]4CC[C@@](C)(C3)N4)nc(OCC3(CN4CC[C@@H](F)C4)CC3)nc2c1F` [Ex 84, 7-(6-chloro-3,5-dimethyl-1H-indazol-4-yl)-6,8-difluoro-2-((1-(((R)-3-fluoropyrrolidin-1-yl)methyl)cyclopropyl)methoxy)-4-((1S,5R)-1-methyl-3,8-diazabicyclo[3.2.1]octan-3-yl)quinazoline], for which the concentration for half-maximal inhibition (IC50) in test [1] (Homo sapiens, ASPC1, 2 h) was 6160 nM; in test [2], 156 nM; in test [3] (IC50 (nM) (cRaf)) it was 9320 nM.
For `Oc1cc(-c2c(F)cc3c(N4CC5CC(O)C(C4)N5)nc(OCC4(CN5CCOCC5)CC4)nc3c2F)c2ccccc2c1` (single isomer, unassigned) [Example 17], the IC50 in test [1] is 7430 nM; in test [2], 52.1 nM; in test [3] (IC50 (nM) (cRaf)), 3260 nM.
Taken in the same sequence, the figures for `C#Cc1cccc2cc(O)cc(-c3c(F)cc4c(N5C[C@H]6CC[C@@](C)(C5)N6)nc(OCC5(CN6CC[C@@H](F)C6)CC5)nc4c3F)c12` (single isomer, unassigned) [103a] were 3.76 nM, 1.05 nM and 26.2 nM.
